Results from US20210087240A1, “BLOCKING GARP CLEAVAGE AND METHODS OF USE THEREOF” (MUSC FOUNDATION FOR RESEARCH DEVELOPMENT, priority 2017, published 2021).
Substitutions are numbered along the chain they refer to.

Experiments:
thrombin = assay: Competition assay: GARP expressing PreB cells digested with thrombin, western blot; type: cell-based; conditions: 4 μg thrombin
Description: FIGS. 12A-12E: Thrombin cleaves GARP at the amino acid position 267 and 286 between proline and arginine. (A) Surface Flow cytometry analysis for GARP of WT PreB cells and GARP expression in PreB cells expressing WT GARP, GARP with single point mutation 267 aa, GARP with single point mutation 286 aa, GARP with double point mutation 267/286 aa (DM), and relative control vector. (B) Western Blot analysis of cells lysates and conditioned media of PreB cells expressing WT GARP, GARP with single point mutation 267 aa, GARP with single point mutation 286 aa, or GARP with double point mutation 267/286 aa using antibody against GARP. (C) PreB cells expressing WT or DM GARP were digested with increasing concentration of thrombin (0, 1, 2, and 4 μg in 25 μl), followed by western blot analysis. (D) Recombinant fragment of GARP containing the two Proline Arginine thrombin binding sites (T250; SEQ ID NO:1). (E) Western blotting analysis of GARP expressing PreB cells digested with 4 μg of thrombin in presence and absence of 4 μg of T250.
Thus, 3 types of mutants: PR 267-268AA (GARP 267), PR 286-287AA (GARP 286), and double mutant (DM) PR 267-268AA PR 286-287AA (GARP 267-286, -DM) were generated. […] Next, it tested whether GARP-DM was resistant to the cleavage of exogenous thrombin. To this end, PreB GARP-WT and PreB GARP-DM were treated with increasing concentrations of thrombin.

[1] = system: T1, GARP double mutant (DM) PR 267-268AA PR 286-287AA, expressed on PreB cells
T1 sequence: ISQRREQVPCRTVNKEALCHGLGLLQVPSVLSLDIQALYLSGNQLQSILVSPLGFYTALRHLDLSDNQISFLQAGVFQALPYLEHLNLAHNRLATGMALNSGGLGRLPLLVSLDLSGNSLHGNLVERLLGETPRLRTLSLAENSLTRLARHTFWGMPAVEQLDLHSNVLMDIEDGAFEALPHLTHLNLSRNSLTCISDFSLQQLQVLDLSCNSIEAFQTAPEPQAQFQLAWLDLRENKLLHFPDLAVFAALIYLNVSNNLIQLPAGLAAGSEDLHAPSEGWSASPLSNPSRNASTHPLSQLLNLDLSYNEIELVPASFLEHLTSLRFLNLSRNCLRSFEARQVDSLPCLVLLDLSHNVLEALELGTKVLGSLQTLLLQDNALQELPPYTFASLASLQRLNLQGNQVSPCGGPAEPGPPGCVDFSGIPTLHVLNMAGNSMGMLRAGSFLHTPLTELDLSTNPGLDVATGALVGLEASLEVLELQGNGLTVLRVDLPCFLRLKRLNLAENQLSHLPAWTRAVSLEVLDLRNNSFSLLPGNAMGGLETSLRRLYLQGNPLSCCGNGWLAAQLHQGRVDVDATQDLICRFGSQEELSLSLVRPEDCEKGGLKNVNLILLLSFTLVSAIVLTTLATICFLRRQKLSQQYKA

[2] = system: T2, GARP (Glycoprotein-A Repetitions Predominant Protein), wild type, expressed on PreB cells
T2 sequence: T1 sequence with A249P, A250R, A268P, A269R

[3] = system: recombinant form of soluble GARP (sGARP) where the transmembrane domain was replaced by IgG1 Fc fragment
[4] = system: regulatory T cells CD25+ FOXP3+; assay: Regulatory T cells among tumor-infiltrating CD4+ lymphocytes; type: in vivo, mice; conditions: CD25+ FOXP3+ in CD4+ TIL
Method: (§1) FIGS. 7A-7G: Direct thrombin inhibitor Dabigatran Etexilate reduces platelet GARP expression and protects against melanoma and colon cancer. (A) Flow cytometry analysis of surface GARP/LAP complex on murine WT platelets stimulated with and without thrombin and Dabigratan Etexilate. (B) Tumor growth curves of mice subcutaneously injected with B16-F1 melanoma cells and daily treated with 3 mg/mouse of Dabigratan Etexilate. (C) Tumor growth curves of mice subcutaneously injected with MC38 colon cancer cells and daily treated with 3 mg/mouse of Dabigratan Etexilate. (D) Serum was obtained from tumor bearing MC38 colon cancer and active (D) and total TGF-β (E) was measured by ELISA. (F) Serum was obtained from tumor bearing MC38 colon cancer and soluble GARP was measured by ELISA. (G) Percentage of regulatory T cells CD25+ FOXP3+ in the CD4+ tumor-infiltrating CD4+ lymphocytes (TIL) from the indicated mice.
(§2) Now, to establish the clinical relevance of the Thrombin-GARP/TGF-β axis, the direct thrombin inhibitor, Dabigatran Etexilate was employed. […] The anti-tumor efficacy of Dabigatran Etexilate was tested in 2 different tumor models. […] As a further proof of the mechanism employed by dabigatran to exert its antitumor activity, serum active and total TGF-β, and serum GARP concentrations were assessed by ELISA.

[5] = system: thrombin activated platelets; assay: Flow cytometry of surface GARP/LAP on platelets stimulated with thrombin; type: cell-based, murine
Method: as §1, §2

MC38 colon cancer cells [6] = assay: MC38 colon cancer tumor growth in mice; type: in vivo; conditions: subcutaneous MC38, daily 3 mg/mouse
Method: as §1
(§3) (A) Tumor growth curves of mice subcutaneously injected with MC38 colon cancer cells and daily treated with 3 mg/mouse of Dabigatran etexilate. […]
(§4) Now, to establish the clinical relevance of the Thrombin-GARP/TGF-β axis, the direct thrombin inhibitor, Dabigatran Etexilate was employed. […] As a further proof of the mechanism employed by dabigatran to exert its antitumor activity, serum active and total TGF-β, and serum GARP concentrations were assessed by ELISA.

soluble GARP = assay: Serum soluble GARP ELISA in MC38 tumor bearing mice; type: in vivo
Method: as §1, §2

TGFβ = TGFβ ELISA on serum of WT B6 mice treated for one week; type: in vivo; conditions: one week daily gavage of 3 mg/mouse
Method: (A) Tumor growth curves of mice subcutaneously injected with MC38 colon cancer cells and daily treated with 3 mg/mouse of Dabigatran etexilate. (B) Tumor growth curves of mice subcutaneously injected with B16-F1 melanoma cells and daily treated with 3 mg/mouse of Dabigatran etexilate. (C) TGFβ ELISA on serum of WT B6 mice treated for one week with daily gavage of 3 mg/mouse of Dabigatran etexilate. Repeated measurement 2-way ANOVA was performed in A and B.

TGF-β = assay: Serum active and total TGF-β ELISA in MC38 tumor bearing mice; type: in vivo
Method: as §1, §2

MC38 colon cancer cells [7] = assay: Dabigatran and PD1 blocking antibody combination therapy in MC38 tumor model; type: in vivo, mice; conditions: dabigatran 3 mg/mouse daily oral gavage, 200 μg anti-PD1 every 3 days from day 8
Description: (A) Experimental design for Dabigatran and PD1 blocking antibody combination therapy. (B) Tumor growth curves of mice subcutaneously injected with MC38 colon cancer cells and treated with Dabigatran alone, with PD1 blocking antibody, with the combination of Dabigatran and PD1 blocking antibody or left untreated. (C) Survival curve in MC38-bearing mice treated with Dabigatran alone, with PD1 blocking antibody, with the combination of Dabigatran and PD1 blocking antibody or left untreated. Repeated measurement 2 way Anova was performed in B. Log-rank (Mantel-Cox) was performed in C. (D) Serum was collected from the mice under the dual treatment and analyzed for TGFβ concentration by TGFβ ELISA. (E) Platelets count of the mice under dual treatment. Repeated measurement 2-way ANOVA was performed in B. Log-rank (Mantel-Cox) was performed in C. Two-tailed, independent Student's t-test was used in panel D and E.
Next, Dabigatran was used in combination with PD1 blockade to block thrombin and consequentially platelet activation to achieve both a reduction of systemic and circulating TGF-β, and the abrogation of platelet-mediated tumor support. Platelets, indeed, secrete many other factors beyond TGF-β that facilitate tumor immune evasion. Animals harboring palpable tumors were daily treated with 3 mg/mouse dabigatran by oral gavage. […]

B16-F1 melanoma cells = assay: B16-F1 melanoma tumor growth in mice; type: in vivo; conditions: subcutaneous B16-F1, daily 3 mg/mouse, no adoptive T cell transfer
Method: as §1, §3, §4

## T250: Recombinant fragment of GARP containing the two Proline Arginine thrombin binding sites; DLRENKLLHFPDLAVFPRLIYLNVSNNLIQLPAGLPRGSEDLHAPSEGWSA (SEQ ID NO:1) (GARP peptide)
thrombin; 4 μg T250
  competition with surface GARP in binding with thrombin: competed with surface GARP in binding with thrombin
thrombin; in presence of exogenous thrombin, 4 μg T250, western blot
  GARP cleavage: able to reduce GARP cleavage

## thrombin
[1]
  western blot after digestion of PreB GARP-DM with increasing concentrations of thrombin: no cleaved products were observed in GARP-DM
[2]
  western blot after digestion of PreB GARP-WT with increasing concentrations of thrombin: Both 44 and 29 KD fragments increased in a dose dependent fashion in GARP-WT
[3]
  western blot of soluble GARP digested with increasing concentrations of thrombin: digestion of soluble GARP with thrombin gave rise to 3 fragments: GARP full length (72 KD), and the 2 smaller fragments of 44 and 29 KD

## CCCCCCOC(=O)NC(=N)c1ccc(NCc2nc3cc(C(=O)N(CCC(=O)OCC)c4ccccn4)ccc3n2C)cc1 [Dabigatran, Dabigatran Etexilate]
[4]
  TGF-β mediated induction of Tregs in the tumor microenvironment: reduces the TGF-β mediated induction of Tregs
[5]
  GARP expression on platelets: increase of GARP expression on platelets can be neutralized
MC38 colon cancer cells [6]
  MC38 tumor growth: sufficient to decrease the rate of tumor growth
MC38 colon cancer cells [6]; listed as Dabigatran etexilate
  MC38 tumor growth: has anti-cancer effect in MC38 colorectal cancer
Soluble GARP
  serum soluble GARP: impairs the release of serum soluble GARP from platelets
TGFβ
  systemic active TGFβ: decreases systemic active TGFβ
TGF-β
  serum total TGF-β: reduced serum total TGF-β
TGF-β; difference to untreated not statistically significant
  serum active TGF-β, mean: 42.47±23.73
MC38 colon cancer cells [7]
  tumor growth: effective in reducing tumor growth
B16-F1 melanoma cells
  B16-F1 tumor growth: reduced B16-F1 tumor aggressiveness
